Measurements reported in PMC12529149, “Chemical and Antiplasmodial Investigations on Carapa-Derived Gedunin Derivatives and Semisynthetic 6- and 7‑Substituted Gedunin Analogues from the Brazilian Amazon” (ACS Omega, 2025).
“And” between values parts separate entries of the source, which are not always exact repeats. Identical values can stand only once. Counter-ions that a name gives are not always drawn. Like-named read-outs stand apart in the source and are kept apart here.

Tests used:
[1] = system: K1 strain of Plasmodium falciparum; test: In vitro susceptibility assay (microtest), P. falciparum K1 growth inhibition; type: cell-based
Procedure: In vitro culture of the K1 strain of P. falciparum (MRA-159, MR4, ATCC, Manassas, Virginia, USA) proceeded following an established method with modifications. Briefly, this method involved the growth of parasites in human type A+ red blood cells and RPMI 1640 medium supplemented with 10% type A+ human plasma at 37 °C under an atmosphere of 5% O2, 5% CO2, and 90% N2.
As initial condition for the susceptibility assay, cultures were synchronized by treatment with 5% D-sorbitol, which provided young trophozoites (ring stages). Performance of the microtest followed a previously described procedure with modifications. Compounds were dissolved in DMSO with the aid of an ultrasound bath to provided stock solutions. […] These diluted samples were evaluated in duplicate in a 96-well test plate. A suspension of parasitized red blood cells (pRBCs) at 2% hematocrit and 1% parasitemia was added to each well. Microplate incubation proceeded for 48 h at 37 °C under the same atmosphere used for parasite culture in two independent experiments conducted on different days. Control wells contained chloroquine (0.003–2.5 μg/mL) and quinine (0.003–2.5 μg/mL). Six (6) control (blank) wells were prepared with pRBCs suspension. Six cosolvent control wells were prepared with 1% DMSO and pRBCs suspension. An average of these 12 controls defined drug-free (untreated) growth. After the incubation period, thin blood smears of the contents of each well were prepared on microscope slides. Optical microscopy was used to analyze the blood smears and establish the parasitemia of each well. Interpolation of the nonlinear curve using GraphPad Prism permitted the calculation of estimates of the sample concentrations able to inhibit 50% of parasite growth (IC50) compared to drug-free controls.

MRC-5 human fibroblasts = test: Cytotoxicity/cell viability assay (Alamar blue); type: cell-based; details: read-out: fibroblasts IC50
Procedure: Medical Research Council cell strain 5 (MRC-5) human fetal fibroblasts were cultivated in Dulbecco′s modified Eagle’s medium (DMEM) supplemented with 10% bovine fetal serum and 1% antibiotic at 37 °C under an atmosphere of 5% CO2. Cell viability assessment relied on the Alamar blue method. […] Doxorubicin at concentrations of 0.312, 0.625, 1.25, 2.50, 5.00, 10.0, and 20.0 μM was used as a positive control for cell death. The negative control wells received DMSO (sample diluent) at 0.1%. In preparation for the assay, this method involved plating 0.5 × 10^4 cells/well on 96 well test plates and incubating for 24 h under the same conditions used for cell culture. This initial 24 h period was necessary for cell adhesion. The assay consisted of triplicate addition of diluted samples and controls to wells followed by 48 h of incubation. For quantification of viable cells, 10 μL of 0.4% Alamar blue (Sigma-Aldrich)–which works out to an in-well concentration of 0.02%–were added to each well 3 h before the end of the treatment. Alamar blue was allowed to react for 3 h followed by quantification of the optical density (OD) of each well at an excitation wavelength of 465 nm and emission wavelength of 540 nm using an ELISA plate reader (DTX-800, Beckman Coulter). Comparison of individual sample viability OD to that of controls (blanks) afforded the cell viability. Interpolation of the nonlinear curve using GraphPad Prism software permitted the calculation of estimates of the sample IC50 values compared to drug-free controls.

[2] = system: P. falciparum K1 strain vs MRC-5 human fibroblasts; test: Selectivity index, IC50 (human fibroblasts) ÷ IC50 (P. falciparum); type: cell-based, Plasmodium falciparum
Description: Calculation of the selectivity index (SI) using the following formula afforded the relative toxicity of each sample to human fibroblasts and to P. falciparum blood stages: SI = IC50 (human fibroblasts) ÷ IC50 (P. falciparum).

P. falciparum = system: P. falciparum; parameters: method as in literature (number not shown); details: strain not stated, ref literature (number not shown), cited from earlier work
Plasmodium berghei = details: oral, 50 mg/kg/day together with dillapiole 25 mg/kg/day (binary treatment), mice; ref literature (numbers not shown); cited from earlier work
[3] = parameters: method as in literature (number not shown); details: low pH similar to mouse and human stomachs; ref literature (number not shown); cited from earlier work
P. falciparum W2 strain = system: P. falciparum W2 strain; parameters: method as in literature (numbers not shown); details: ref literature (numbers not shown); cited from earlier work
P. falciparum D6 strain = system: P. falciparum D6 strain; parameters: method as in literature (numbers not shown); details: ref literature (numbers not shown); cited from earlier work
[4] = system: variety of P. falciparum strains; details: cited from earlier work
[5] = system: mouse mammary carcinoma (FM3A) cell cultures; parameters: method as in literature (number not shown); details: ref literature (number not shown); cited from earlier work
[6] = system: P. falciparum FCR3 strain; parameters: method as in literature (numbers not shown); details: ref literature (numbers not shown); cited from earlier work
P. falciparum K1 strain = system: P. falciparum K1 strain; parameters: method as in earlier work; details: ref previous reports incl. authors' earlier work (numbers not shown); cited from earlier work
[7] = Plasmodium falciparum, K1, 48 h, read-out: P. falciparum IC50 (CI95), K1 strain, 48 h, CI95 in brackets
[8] = Plasmodium falciparum, K1, 48 h, K1 strain, 48 h, CI95 in brackets, read-out: P. falciparum IC50 (CI95)
[9] = MRC5, MRC-5, tested at 50 μg/mL for 48 h

Molecule	selectivity index (SI) [2]	IC50 [1, 8]	IC50 (MRC-5 human fibroblasts; [9]) [µM]	other results
CCN(CC)CCCC(C)Nc1ccnc2cc(Cl)ccc12 (stereo not shown) [chloroquine diphosphate, reference compound]				IC50 ([1]; Plasmodium falciparum, K1, 48 h, read-out: P. falciparum IC50 (CI95)): 0.18 µg/mL and 350 nM
CCCC(=O)O[C@@H]1C[C@H]2C(C)(C)C(=O)C=C[C@]2(C)[C@H]2CC[C@@]3(C)[C@H](c4ccoc4)OC(=O)[C@H]4O[C@]43[C@@]21C [compound 6, 7-deacetyl-7-butanoylgedunin]	>21			IC50 [1, 7]: 2.4 µg/mL and 4.7 µM; IC50 (MRC-5 human fibroblasts; MRC5, 48 h): > 98 µM
CCCCC(=O)O[C@@H]1C[C@H]2C(C)(C)C(=O)C=C[C@]2(C)[C@H]2CC[C@@]3(C)[C@H](c4ccoc4)OC(=O)[C@H]4O[C@]43[C@@]21C [compound 8, 7-deacetyl-7-pentanoylgedunin]	>12	4.2 µg/mL and 8 µM	> 95	
CCCC(=O)O[C@H]1C[C@H]2C(C)(C)C(=O)C=C[C@]2(C)[C@H]2CC[C@@]3(C)[C@H](c4ccoc4)OC(=O)[C@H]4O[C@]43[C@]12C [compound 7, 7-deacetyl-7-butanoyl-7-epi-gedunin]	>21			IC50 [1, 7]: 2.4 µg/mL and 4.7 µM; IC50 (MRC-5 human fibroblasts; MRC5, 48 h): > 98 µM
7-deacetyl-7α-methoxygedunin [reference compound]				IC50 (P. falciparum; read-out: IC50, P. falciparum in vitro): 1.6 to 1.7 µM; suppression of P. berghei vs untreated controls (Plasmodium berghei): 68–81%; stability at low pH [3]: good stability at low pH
CC(=O)O[C@@H]1C[C@H]2C(C)(C)C(=O)C=C[C@]2(C)[C@H]2CC[C@@]3(C)[C@H](c4ccoc4)OC(=O)[C@H]4O[C@]43[C@@]21C (single isomer, unassigned) [(−)-gedunin, reference compound]				IC50 (P. falciparum; 48 h, read-out: IC50 after 48 h): 1 µM; IC50 (P. falciparum; 96 h, read-out: IC50 after 96 h): 0.3 µM; IC50 (P. falciparum W2 strain): 0.041 to 0.65 µM; IC50 (P. falciparum D6 strain): 0.081 to 0.63 µM
CC1(C)C(=O)C=C[C@]2(C)[C@H]3CC[C@@]4(C)[C@H](c5ccoc5)OC(=O)[C@H]5O[C@]54[C@]3(C)[C@@H](O)C[C@@H]12 [compound 3, 7-deacetyl-7-epi-gedunin]	>15			IC50 [1, 7]: 3.4 µg/mL and 7.8 µM; IC50 (MRC-5 human fibroblasts; MRC5, 48 h): > 110 µM
CC1(C)C(=O)C=C[C@]2(C)[C@H]3CC[C@@]4(C)[C@H](c5ccoc5)OC(=O)[C@H]5O[C@]54[C@]3(C)C(=O)C[C@@H]12 [compound 1, 7-Deacetyl-7-oxogedunin]				IC50 ([4]; FCR3 and INDO strains, ref previous reports (numbers not shown), read-out: IC50): 2.5 to 7.5 µM; IC50 (P. falciparum W2 strain): > 20.7 µM; IC50 (P. falciparum D6 strain): > 20.7 µM; toxicity to FM3A cells [5]: toxic
CCCC(=O)O[C@H]1[C@@H](O)[C@]2(C)[C@H](CC[C@@]3(C)[C@H](c4ccoc4)OC(=O)[C@H]4O[C@@]423)[C@@]2(C)C=CC(=O)C(C)(C)[C@H]12 [compound 13, 7-deacetyl-6α-butanoyloxygedunin]	>15	3.7 µg/mL and 7.1 µM	> 100	
CCCCCCC(=O)O[C@H]1[C@@H](O)[C@]2(C)[C@H](CC[C@@]3(C)[C@H](c4ccoc4)OC(=O)[C@H]4O[C@@]423)[C@@]2(C)C=CC(=O)C(C)(C)[C@H]12 [compound 15, 7-deacetyl-6α-heptanoyloxygedunin]	>9.4	5.4 µg/mL and 9.4 µM	> 88	
CC(=O)O[C@@H]1[C@H](O)[C@H]2C(C)(C)C(=O)C=C[C@]2(C)[C@H]2CC[C@@]3(C)[C@H](c4ccoc4)OC(=O)[C@H]4O[C@]43[C@]12C [compound 11, 6α-hydroxygedunin]	>26	2.2 µg/mL and 4.4 µM	> 110	IC50 [6]: 90 µM
CC(=O)O[C@H]1[C@@H](OC(C)=O)[C@]2(C)[C@H](CC[C@@]3(C)[C@H](c4ccoc4)OC(=O)[C@H]4O[C@@]423)[C@@]2(C)C=CC(=O)C(C)(C)[C@H]12 [6α-acetoxygedunin]				IC50 [6]: 2.8 µM; toxicity to FM3A cells [5]: toxic
CC1(C)C(=O)C=C[C@]2(C)[C@H]3CC[C@@]4(C)[C@H](c5ccoc5)OC(=O)[C@H]5O[C@]54[C@]3(C)[C@H](O)C[C@@H]12 [compound 2, 7-deacetylgedunin]	>8.5			IC50 [1, 7]: 5.9 µg/mL; IC50 ([1]; read-out: P. falciparum IC50 (CI95), K1 strain, 48 h, CI95 in brackets): 13 µM; IC50 (MRC-5 human fibroblasts; MRC5, 48 h): > 110 µM; IC50 ([4]; variety of strains (3D7, D6, D10, W2, INDO), ref several previous reports (numbers not shown), read-out: IC50, in vitro growth): 1.3 to 5.9 µM; IC50 (P. falciparum K1 strain): 3.1 µM; stability at low pH [3]: react at low pH
CC1(C)C(=O)C=C[C@]2(C)[C@H]3CC[C@@]4(C)[C@H](c5ccoc5)OC(=O)[C@H]5O[C@]54[C@]3(C)[C@H](O)[C@H](O)[C@@H]12 [compound 10, 7-deacetyl-6α-hydroxygedunin]	>16	2.8 µg/mL and 6.1 µM	> 100	IC50 (P. falciparum K1 strain): 5 µM
CC(=O)O[C@H]1[C@@H](O)[C@]2(C)[C@H](CC[C@@]3(C)[C@H](c4ccoc4)OC(=O)[C@H]4O[C@@]423)[C@@]2(C)C=CC(=O)C(C)(C)[C@H]12 [6α-acetoxy-7-deacetylgedunin, reference compound]				IC50 [6]: 4 µM
CC1(C)[C@H](O)CC[C@]2(C)[C@H]3CC[C@@]4(C)[C@H](c5ccoc5)OC(=O)[C@H]5O[C@]54[C@]3(C)[C@@H](O)C[C@@H]12 [compound 16, 7-deacetyl-3-deoxo-1,2-dihydro-3α-hydroxy-7-epi-gedunin]	>3.2	16 µg/mL	> 110	
C=C[C@H]1C[N@@]2CC[C@H]1C[C@H]2[C@H](O)c1ccnc2ccc(OC)cc12 [quinine hydrochloride, reference compound]		0.14 µg/mL and 350 nM		
CC1(C)C(=O)C=C[C@]2(C)[C@H]3CC[C@@]4(C)[C@H](c5ccoc5)OC(=O)[C@H]5O[C@]54[C@]3(C)[C@H](O)[C@H](OC(=O)c3ccccc3)[C@@H]12 [compound 14, 7-deacetyl-6α-benzoxygedunin]	>11	5.1 µg/mL and 10 µM	> 110	
CCCCC(=O)O[C@H]1C[C@H]2C(C)(C)C(=O)C=C[C@]2(C)[C@H]2CC[C@@]3(C)[C@H](c4ccoc4)OC(=O)[C@H]4O[C@]43[C@]12C [compound 9, 7-deacetyl-7-pentanoyl-7-epi-gedunin]	>14	3.7 µg/mL and 7 µM	> 95	
CC(=O)O[C@H]1C[C@H]2C(C)(C)C(=O)C=C[C@]2(C)[C@H]2CC[C@@]3(C)[C@H](c4ccoc4)OC(=O)[C@H]4O[C@]43[C@]12C [compound 5, 7-epi-gedunin]	>45	1.1 µg/mL and 2.3 µM	> 100	
